Values quoted from earlier work in US20030165566A1, “Sedative non-benzodiazepine formulations” (priority 2002, published 2003).
Where a name gives a salt, the structure may show the parent alone. Read-outs that look alike come from different tables or passages of the source.

What was measured:
[1] = in vivo
[2] = 10 mg
[3] = single 20 mg oral dose, elderly (>70 years) vs 20 to 40 years
[4] = single 20 mg oral dose, elderly subjects (>70 years)
[5] = single 20 mg oral dose, younger adults (20 to 40 years)
[6] = 20 minutes after a meal vs fasting

SMILES | increase of mean AUC, elderly vs younger adults [3] [%] | increase of mean Cmax, elderly vs younger adults [3] [%] | increase of mean T1/2, elderly vs younger adults [3] [%] | mean AUC [4] | mean Cmax [4] [µg/mL] | mean T1/2 [4] [h] | mean AUC [5] [ng/h/mL] | mean Cmax [5] [µg/mL] | mean T1/2 [5] [h] | half-life [1] | mean Tmax ([2]; 20 minutes after a meal) [h] | decrease of mean AUC with food [2, 6] [%] | decrease of mean Cmax with food [2, 6] [%] | half-life with food [2, 6] | prolongation of mean Tmax with food [2, 6] [%] | mean Tmax ([2]; fasting) [h] | accumulation (elderly subjects, nightly oral dosing 10 mg for 1 week)
Cc1ccc(-c2nc3ccc(C)cn3c2CC(=O)N(C)C)cc1 [Zolpidem] | 64 | 50 | 32 | 1,562 ng/hr/ml | 0.284 | 2.9 | 955 | 0.255 | 2.2 | approximately 2.5 hours |  |  |  |  |  |  | 
Cc1ccc(-c2nc3ccc(C)cn3c2CC(=O)N(C)C)cc1 [zolpidem tartrate] |  |  |  |  |  |  |  |  |  |  | 2.2 | 15 | 25 | remained unchanged | 60 | 1.4 | did not accumulate
